Experimental data reported in patent publication EP0942896B1, “SUBSTITUTED PHENOLS AND THIOPHENOLS USEFUL AS ANTIOXIDANT AGENTS” (Aventis Pharmaceuticals Inc., priority 1996, dated 1998).
Like-named read-outs stand apart in the source and are kept apart here.

How the values were obtained:
[1] = tested on: oxidation of serum lipids; assay: TBARS assay on serum of treated rats (CuSO4-initiated oxidation); format: in vivo, Male Sprague-Dawley rats; conditions: % of control; thiobarbituric acid reactive substances as nmoles MDA, rat serum; diet 0.3%, 4 days; N = 5
Source text: (§1) A typical experiment consists of 4-6 groups of rats (N = 5 per group) with I group being a control which receives no MDL compound and the other groups being treated with 0.3% MDL compound. Some of the compounds are either repeated at 0.3% or evaluated again at the lower dose of 0.1%. House Male Sprague-Dawley rats, 50-100 g, (Harlan Laboratories, Indianapolis, IN) in groups of 5, feeding ad libitum water and Purina Rodent chow (#5002) with or without MDL compound as a dietary admixture for 4 days. Make dietary admixtures (0.3%) by mixing 1.2 grams of an MDL compound with 400 grams of Purina rodent chow (#5002). Mix the MDL compound with approximately 50 grams of food using a mortar and pestle. This is added to the remainder of the food and mixed for 3 hours on a rotary mixer. In the morning of day 5, anesthetize non-fasted rats with carbon dioxide, and collect blood by cardiac puncture. Sacrifice rats by cervical dislocation. Record body weights and liver weights in grams. Record food consumption as grams • day^-1 • rat^-1. Deaths are recorded as mortality. Use aliquots of fresh serum for clinical chemistries, thiobarbituric acid reactive substances (TBARS) and conjugated diene measurements. Freeze aliquots of serum (∼ 0.5mL) and whole livers at -20°C for compound and metabolite concentration determination at a later time.
In this assay the oxidation of serum lipids is initiated with CuSO4, resulting in the formation of aldehydes, such as malondialdehyde (MDA). Upon incubation with thiobarbituric acid, the absorbance of the aldehydes can be detected at 530-540 nm. As stated in the previous example, TBARS values which are lower than control serum values indicate the relative ability of a test compound to inhibit the oxidation of lipids in a sample. Measure TBARS as follows: mix 100µL of serum with 400µL of a 5mmol CuSO4 solution and incubate at 37°C for 3 hr. Stop the reactions by addition of 1.0mL of 20% trichloroacetic acid. Then add 1.0mL of 0.67% thiobarbituric acid in 0.05 N sodium hydroxide, mix, and incubate the samples for 30 min at 90°C. Centrifuge samples briefly to pellet undissolved material, and transfer the supernatants to a 96-well microtiter plate. Measure absorbances at 540 nm using a Biotek model EL311 microplate reader. The nmoles of MDA produced are calculated from a standard curve of 0 to 10 nmoles of MDA prepared from malonaldehyde bis(dimethylacetal). Serum samples from treated rats are compared to serum samples from control rats that received no MDL compound.

[2] = Animal parameters (food, body weight, liver weight/body weight, mortality) in rats; format: in vivo; conditions: 4 days; for food / lw/bw / body wt.: % of control, diet 0.3%, N = 5; for food: grams eaten per day per rat; for lw/bw: liver weight/body weight; for lw/bw / body wt. / mortality: rat; for body wt.: weight in grams; for mortality: male, Sprague-Dawley, in vivo
Source text: as §1

[3] = HPLC quantitation of compound and metabolite concentration in rat serum and liver; format: in vivo; conditions: male, Sprague-Dawley, oral, 0.3 % in chow, diet 0.3%, 4 days, mean N = 5
Source text: as §1
Determine serum and liver concentrations of parent compound and the metabolites, bisphenol and diphenoquinone, by reverse phase HPLC using a Waters 990 Powerline system. Homegenize livers (1 gram samples) with 5.0mL PBS, pH 7.4, using a Polytron tissue homogenizer at setting 5 for 20-30 seconds. Extract serum or liver homogenates as follows: add 100µL of either serum or homogenate to 2.0mL diethyl ether: ethanol (3:1) while vortexing the tube. Cap the sample tubes and centrifuge for 10 min at 5°C at 3500 rpm in a Beckman GPKR centrifuge with a GH 3.7 rotor. Transfer the supernatants to clean tubes and dry under N2. Reconstitute samples with 200µL of acetonitrile : hexane : 0.1 M ammonium acetate (90: 6.5 : 3.5, by vol.). Then, inject 100µL onto a Waters Deltapak C18-300 Å column, and elute with an 83% acetonitrile : 17% water mobile phase at a flow rate of 1.5mL/min. Record absorbances at the wavelengths of 240, 254, and 420nm. Calculate compound concentrations from known quantities of authentic parent compounds after correction for recovery. […]. Calculate concentrations as µg/mL of serum and µg/g of liver.

Male Sprague-Dawley Rats = assay: Serum clinical chemistries in rats fed compound as dietary admixture; format: in vivo; conditions: % of control, diet 0.3%, 4 days, N = 5; for ALT: alanine aminotransferase in rat serum; for ALP: alkaline phosphatase in rat serum; for AST: aspartate aminotransferase in rat serum; for GLUC: glucose in rat serum; for response vs control in vivo at 0.3 % in diet: feed or water, 96 h
Source text: as §1
Allow blood to clot at room temperature for 30 minutes. Obtain serum after centrifugation for 10 min at 4°C at 3000 rpm in a Beckman J-6M/E centrifuge with a JS-4.2 rotor. Analyze fresh serum by a COBAS MIRA S autoanalyzer (Roche Diagnostics) using Roche diagnostic reagents for the following clinical chemistry measurements: alkaline phosphatase (ALP, kit # 44553), alanine transaminase (ALT, kit # 42375), aspartate aminotransferase (AST, kit # 42381), total cholesterol (CHOL, kit # 44334), triglyceride (TG, kit # 44120), and glucose (GLU, kit # 44558). Calculate ALP, ALT, and AST as units/L. Calculate cholesterol, triglycerides, and glucose as mg/dL.

oxidation of lipids = assay: Conjugated diene lag phase determination on pooled serum of treated rats; format: in vivo, Male Sprague-Dawley rats; conditions: not normalized, mean of 2 determinations of pooled rat serum (N = 5), diet 0.3%, 4 days
Source text: as §1
Conjugated diene lag phase is another indicator of the oxidation of lipids. Lipids exposed to Cu^++ form conjugated dienes that absorb ultraviolet light in the range of 230 to 235 nm. The lag phase of diene formation gives an indication of the amount of oxidation of the lipids. A lag phase longer than control samples indicate inhibition of the oxidation. Determine conjugated diene lay phase using a Varian DMS200 spectrophotometer (fitted with a constant temperature, 5 cuvette sample changer) at 30°C. Add twenty (20) µL of pooled serum to cuvettes containing 3.0mL phosphate buffered saline, pH 7.5, and mix. Measure the absorbances of all cuvettes and set the instrument baseline to zero using the lowest absorbing sample. Next, add 100µL of 1 mmol CuSO4 and mix immediately. Record the absorbance of each cuvette at 2 min intervals for a period of 840 min. Capture the data and transfer to a Microsoft EXCEL® spreadsheet where the curves are smoothed and differentials obtained. Determine lag times mathematically as minutes. Pool serum samples (N = 5); data presented are the mean values of 2 determinations. Compare serum samples from treated rats to serum samples from control rats that received no MDL compound.

[4] = parent compound concentration in rat liver, read-out: Liver Parent
[5] = parent compound concentration in rat serum, read-out: Serum Parent
[6] = total cholesterol in rat serum, read-out: CHOL
[7] = triglycerides in rat serum, read-out: TRIG

Compound	TBARS [1]	food [2]	lw/bw [2]	body wt. [2]	mortality [2]	concentration at 5 day [3, 4]	concentration at 5 day [3, 5]	ALT (Male Sprague-Dawley Rats)	ALP (Male Sprague-Dawley Rats)	AST (Male Sprague-Dawley Rats)	GLUC (Male Sprague-Dawley Rats)	response vs control in vivo at 0.3 % in diet (Male Sprague-Dawley Rats; [6])	response vs control in vivo at 0.3 % in diet (Male Sprague-Dawley Rats; [7])	CONJ. DIENE (oxidation of lipids)
CC(C)=CCC[C@H](C)CCOc1ccc(O)c(C(C)(C)C)c1 (stereo in doubt) [MDL 103,649, Phenol, 2-(1,1-dimethylethyl)-4-[(3,7-dimethyl-6-octenyl)oxy]-, (S)-]	29%	95%	111%	94%	0%	0 ng/g	1400 ng/mL	119%	74%	82%	101%	89%	143%	375 min
CC(C)=CCC[C@H](C)CCSc1ccc(O)c(C(C)(C)C)c1 [MDL 103,714, Phenol, 2-(1,1-dimethylethyl)-4-[(3,7-dimethyl-6-octenyl)thio]-, (S)-]	21%	102%	121%	103%	0%	0 ng/g	2700 ng/mL	120%	111%	104%	95%	90%	122%	–
CC(C)CCCC(C)CCOc1cc(C(C)(C)C)c(O)c(C(C)(C)C)c1 (stereo not shown) [MDL 104,102, Phenol, 2,6-bis(1,1-dimethylethyl)-4-[(3,7-dimethyloctyl)oxy]-]	71%	92%	121%	97%	0%	481000 ng/g	32800 ng/mL	114%	101%	82%	98%	100%	127%	229 min
CC(CCCC(C)(C)O)CCSc1cc(C(C)(C)C)c(O)c(C(C)(C)C)c1 (stereo not shown) [MDL 104,487, Phenol, 2,6-bis(1,1-dimethylethyl)-4-[(7-hydroxy-3,7-dimethyloctyl)thio]-]	87%	90%	150%	95%	0%	3800 ng/g	4100 ng/mL	129%	137%	124%	92%	127%	108%	–
CC(C)=CCCC(C)CCOc1ccc(O)c(C(C)(C)C)c1 (stereo not shown) [MDL 105,411, Phenol, 2-(1,1-dimethylethyl)-4-[(3,7-dimethyl-6-octenyl)oxy]-]	29%	95%	114%	101%	0%	0 ng/g	1100 ng/mL	122%	76%	87%	96%	105%	100%	400 min
CC(C)=CCC[C@H](C)CCOc1cc(C(C)(C)C)c(O)cc1C(C)(C)C [MDL 107,059, Phenol, 2,5-bis(1,1-dimethylethyl)-4-[(3,7-dimethyl-6-octenyl)oxy]-, (S)-]	78%	95%	107%	95%	0%	0 ng/g	0 ng/mL	116%	118%	140%	96%	89%	35%	201 min
